{
  "source": "patent US20250339531A1",
  "about": "“DUX4 POLYPEPTIDES AND NUCLEIC ACIDS FOR TREATING INFLAMMATORY AND AUTOIMMUNE CONDITIONS” (Fred Hutchinson Cancer Center, priority 2021, published 2025)",
  "key": {"[1]": {"target": "T1, STAT1 (Homo sapiens, UniProt P42224)", "T1 construct": "co-localization of endogenous STAT1 and pSTAT1 701 with the iDUX4-CTD; endogenous in cells; host or cells: MB135 human myoblasts carrying doxycycline-inducible DUX4 / DUX4-CTD / DUXB / Dux transgenes, with or without IFNG", "T1 sequence (P42224 1-750)": "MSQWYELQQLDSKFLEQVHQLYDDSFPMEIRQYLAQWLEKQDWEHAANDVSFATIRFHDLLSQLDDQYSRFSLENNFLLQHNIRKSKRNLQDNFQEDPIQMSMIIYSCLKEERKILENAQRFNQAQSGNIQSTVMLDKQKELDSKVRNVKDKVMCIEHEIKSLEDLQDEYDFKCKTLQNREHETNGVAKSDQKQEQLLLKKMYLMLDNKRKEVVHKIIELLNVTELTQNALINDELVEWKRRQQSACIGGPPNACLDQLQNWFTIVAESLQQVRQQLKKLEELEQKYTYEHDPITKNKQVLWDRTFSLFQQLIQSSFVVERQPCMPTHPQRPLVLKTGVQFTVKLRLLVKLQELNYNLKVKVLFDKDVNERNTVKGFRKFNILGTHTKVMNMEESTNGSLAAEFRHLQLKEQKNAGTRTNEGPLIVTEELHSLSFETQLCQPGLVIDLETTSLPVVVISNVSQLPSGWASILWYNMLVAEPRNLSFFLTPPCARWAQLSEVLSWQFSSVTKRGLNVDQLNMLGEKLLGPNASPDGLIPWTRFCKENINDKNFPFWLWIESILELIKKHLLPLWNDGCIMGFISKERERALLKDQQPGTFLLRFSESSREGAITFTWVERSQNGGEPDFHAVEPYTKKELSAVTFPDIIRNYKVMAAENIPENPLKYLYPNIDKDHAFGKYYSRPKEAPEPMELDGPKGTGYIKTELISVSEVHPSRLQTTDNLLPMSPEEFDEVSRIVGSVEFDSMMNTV", "assay": "Immunofluorescence of STAT1 distribution", "assay_type": "cell-based", "settings": "MB135 cells, IFNG ± doxycycline", "method": "Cells were fixed for 10 minutes with 2% paraformaldehyde (Thermo Scientific) for DUX4/STAT1 and 4% paraformaldehyde for DUX4/IDO1 then permeabilized for 10 minutes with 0.5% Triton X-100 (Sigma), both at room temperature with gentle shaking. Cells were then blocked for 2 hours with PBS/0.3M glycine/3% BSA at room temperature with gentle shaking. Primary antibodies were incubated at 4° C. overnight: mouse anti-FLAG M2 1:500 (Sigma #F1804), rabbit anti-STAT1 mAb 1:750 (Abcam #ab109320), rabbit anti-IDO1 (D5J4E) 1:100 (Cell Signaling Tech 86630S), and mouse anti-DUX4 (P2G4) 1:250 (Geng et al., 2011). Cells were washed three times with 1×PBS containing 3% BSA, then secondary antibodies were incubated for 1 hr at room temperature: FITC-conjugated donkey anti-rabbit (Jackson immunoResearch) or TRITC-conjugated donkey anti-mouse (Jackson ImmunoResearch). Cells were washed once with 1×PBS containing 3% BSA then stained with DAPI (Sigma) for 10′ at room temperature and then visualized."}, "[2]": {"tested_on": "T-cell activation", "assay": "Activation of NYESO TCR-engineered T cells by NYESO expressing MEL375 cells (IFNG and IL-2 secretion)", "assay_type": "cell-based, human", "settings": "pulse-expression 24 hrs prior to T-cell addition", "from_the_text": "To determine whether the combined short- and long-term mechanisms of MHC protein expression in response to cytokine signaling is sufficient to prevent T-cell activation, NYESO expressing MEL375 cells were used in an assay with T-cells engineered with the TCR (T Cell Receptor) for the NYESO antigen and measured T-cell activation by secretion of IFNG and IL-2."}, "[3]": {"tested_on": "HLA-E", "assay": "Immunoblot of non-canonical MHC class I HLA-E", "assay_type": "cell-based, human", "settings": "MB135iDUX4 cells", "method": "(§1) Protein samples were harvested in RIPA buffer [150 mM NaCl, 1% NP-40, 0.5% Na-deocycholate, 1% SDS, 25 mM Tris-HCl pH7.4] supplemented with protease and phosphatase inhibitor tablets (Pierce), followed by sonication in Diagenode Bioruptor. Lysate was cleared by centrifugation at 16000×g and quantified using a Pierce BCA assay (Thermo Fisher Scientific). Samples were run on NuPAGE precast polyacrylamide gels (Invitrogen) and transferred to PVDF membrane. Membranes were blocked in PBS containing 0.1% Tween-20 and 5% non-fat dry milk before overnight incubation at 4° C. with primary antibodies (see resource table for a list of antibodies used in this study). Membranes were incubated with horseradish peroxidase-conjugated secondary antibodies for 1 hour at room temperature and SuperSignal chemiluminescent substrate (Thermo Scientific) was used for detection on film with a Mini-medical 90 processor. Membranes were stripped with Restore Western Blot Stripping Buffer (Pierce)."}, "[4]": {"tested_on": "eIF2-alpha, RPS6, 4EBP1, eIF4E, eEF2", "assay": "Immunoblot of translational regulators", "assay_type": "cell-based, human", "settings": "MB135 myoblasts, 4-hour pulse of doxycycline", "method": "as §1"}, "[5]": {"tested_on": "in vitro translated STAT1", "assay": "In vitro translation and anti-FLAG immunoprecipitation", "assay_type": "binding", "settings": "rabbit reticulocyte lysate proteins, ± JAK1 kinase; listed as DUX4-CTD", "method": "In vitro translated proteins were prepared using the TnT Quick Coupled Transcription Translation System (Promega, L2080) for the SP6 promoter on the pCS2-3×MYC-STAT1, pCS2-3×MYC-STAT1-S727E, pCS2-3×FLAG-DUX4aa154-424, and pCS2-3×FLAG-DUXB plasmids. To phosphorylate the 3×MYC-STAT1 and 3×MYC-STAT1-S727E proteins at Y701, 20 μL of the TnT reaction was mixed with 8 μL of 5× Kinase Buffer A (ThermoFisher, Cat #PV3189), 4 uL 10 mM ATP (ThermoFisher, Cat #PV3227), 0.4 ug recombinant JAK1 kinase (ThermoFisher, Cat #PV4774), and then nuclease-free ddH2O to a final volume of 40 μL and incubated for 1 hour at 30° C. The same procedure was used for treatment of 3×FLAG-DUX4-CTD with JAK1 kinase. For IPs, the in vitro translated proteins were mixed and incubated for 15 minutes in a 37° C. water bath. 0.3 mL of ice-cold in vitro IP buffer [20 mM Tris-HCl pH 7.5, 137 mM NaCl, 1 mM EDTA, 0.1% Tween20, 5% glycerol, adjusted to pH 7.4] was added to each sample and then 50 μL of Dynabeads Protein G bound to mouse IgG1 anti-FLAG [M2] (F3165) and incubated for 3 hours at 4° C. with gentle rotation. After immunoprecipitation of FLAG-tagged constructs, each sample was washed 3 times with 1 mL of ice-cold in vitro IP buffer in a 4° C. room. […]"}},
  "note": "Entries after “also recorded” stand apart in the source; their conditions may differ.",
  "data": [
    {"substance": "DUX4: human DUX4 protein SEQ ID NO:3 expressed from doxycycline inducible codon altered transgene SEQ ID NO:2", "values": [
      {"measurement": "STAT1 nuclear distribution", "setting": "[1]", "result": "no longer evenly distributed in the nucleus and shows overall decreased abundance"},
      {"measurement": "T-cell activation (IFNG and IL-2 secretion)", "setting": "[2]", "result": "completely blocks the T-cell activation by the NYESO expressing MEL375 cells"},
      {"measurement": "effect on IFNG-induced HLA-E protein", "setting": "[3]", "result": "does not suppress the noncanonical MHC class E (HLA-E); also recorded: maintaining HLA-E in multiple cell types"},
      {"measurement": "status of translational regulators after a pulse of transgene", "setting": "[4]", "result": "sufficient to induce phosphorylation of eIF2-alpha; also recorded: brief reduction in phosphorylation of ribosomal protein S6 (RPS6); also recorded: prolonged dephosphorylation of 4EBP1 and a correlated loss of phosphorylated eukaryotic initiation factor 4E (eIF4E); also recorded: increased phosphorylation of eukaryotic elongation factor 2 (eEF2) on threonine 56; also recorded: enhanced phosphorylation of eEF2 at Thr56 and reduced phosphorylation of eIF4E at Ser209"}
    ]},
    {"substance": "longCTD: 3×FLAG tag and nls in frame with carboxyterminal 271 amino acids of DUX4 (aa154-424), SEQ ID NOS: 8-9", "values": [
      {"measurement": "interaction with in vitro translated STAT1", "setting": "[5]", "result": "did not interact with in vitro translated STAT1; also recorded: does not co-immunoprecipitate with in vitro translated/phosphorylated STAT1"}
    ]}
  ]
}
